Target: T1, LXRβ (Homo sapiens, UniProt P55055)
T1 construct: Co-transfection expression plasmids, comprising full-length LXRα (pCMX-h LXRα[…] or LXRβ (pCMX-hLXRβ)); expressed in transfected cells; host or cells: CV-1 African Green Monkey Kidney Cells
T1 sequence (P55055 1-460): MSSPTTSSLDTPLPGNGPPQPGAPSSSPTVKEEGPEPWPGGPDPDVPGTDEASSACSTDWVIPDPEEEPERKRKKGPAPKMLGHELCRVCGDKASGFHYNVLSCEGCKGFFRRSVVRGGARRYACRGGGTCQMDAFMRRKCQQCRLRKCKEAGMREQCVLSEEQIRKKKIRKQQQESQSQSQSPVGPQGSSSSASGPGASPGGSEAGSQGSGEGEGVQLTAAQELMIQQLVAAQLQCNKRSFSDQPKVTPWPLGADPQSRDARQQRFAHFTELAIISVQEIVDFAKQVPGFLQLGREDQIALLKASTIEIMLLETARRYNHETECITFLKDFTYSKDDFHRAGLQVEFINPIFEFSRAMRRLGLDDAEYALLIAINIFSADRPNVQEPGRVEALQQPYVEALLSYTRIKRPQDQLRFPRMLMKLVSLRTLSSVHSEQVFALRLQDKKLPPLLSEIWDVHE
T1 sequence (P19793 1-462 partner): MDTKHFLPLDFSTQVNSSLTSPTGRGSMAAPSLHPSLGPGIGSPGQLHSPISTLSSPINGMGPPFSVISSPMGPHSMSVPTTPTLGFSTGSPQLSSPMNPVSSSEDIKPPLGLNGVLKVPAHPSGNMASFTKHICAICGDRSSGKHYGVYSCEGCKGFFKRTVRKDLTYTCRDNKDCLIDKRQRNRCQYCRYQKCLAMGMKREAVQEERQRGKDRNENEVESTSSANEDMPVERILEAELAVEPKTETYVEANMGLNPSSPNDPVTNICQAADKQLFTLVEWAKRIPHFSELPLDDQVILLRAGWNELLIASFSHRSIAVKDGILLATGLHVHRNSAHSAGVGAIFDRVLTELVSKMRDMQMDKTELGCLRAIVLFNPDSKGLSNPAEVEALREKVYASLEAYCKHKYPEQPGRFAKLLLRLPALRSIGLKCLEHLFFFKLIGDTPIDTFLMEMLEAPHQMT
Assay: Co-transfection assay (LXRE luciferase reporter), LXRβ
Format: cell-based
Settings: for EC50: CV-1 cells transfected with pCMX-hLXRβ and LXREx1-Tk-Luciferase, 20 hours incubation; for Emax: LXRβ co-transfection, relative to high control 1-(2,4-difluorobenzyl)-2-oxo-6-(4-phenoxyphenyl)-4-(trifluoromethyl)-1,2-dihydropyridine-3-carbonitrile, read-out: % Efficacy
How it was run: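 Luciferase output from an LXRE-Tk reporter measured after 20 h, 37 °C compound exposure of transiently transfected CV-1 cells expressing human LXRβ with endogenous RXR. EC50 fitted from 11-point half-log dose responses (mean of ≥2 runs); % efficacy versus maximal response of the reference agonist.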

EC50 [nM]	Emax [%]	SMILES
598	42	CS(=O)(=O)c1cccc(-c2cc(Cl)c(-n3cnc(C(F)(F)F)c3)c(-n3nncc3-c3ccc(OC(F)(F)F)cc3)c2)c1 [Example 192, 1-{5-chloro-3′-(methylsulfonyl)-4-[4-(trifluoromethyl)-1H-imidazol-1-yl]biphenyl-3-yl}-5-{4-[(trifluoromethyl)oxy]phenyl}-1H-1,2,3-triazole]
522	79	Cc1nc(-c2cc(-c3cc(F)c(CO)c(S(C)(=O)=O)c3)ccc2-n2cc(C(F)(F)F)nc2C)c(-c2ccc(Cl)nc2)o1 [Example 551, (3′-(5-(6-chloropyridin-3-yl)-2-methyloxazol-4-yl)-3-fluoro-4′-(2-methyl-4-(trifluoromethyl)-1H-imidazol-1-yl)-5-(methylsulfonyl)-[1,1′-biphenyl]-4-yl)methanol]
271	66	Cc1nc(-c2cc(-c3cc(F)c(CO)c(S(C)(=O)=O)c3)ccc2-n2cc(C(F)(F)F)nc2C)c(-c2ccc(C(F)(F)F)nc2Cl)o1 [Example 477, (3′-(5-(2-chloro-6-(trifluoromethyl)pyridin-3-yl)-2-methyloxazol-4-yl)-3-fluoro-4′-(2-methyl-4-(trifluoromethyl)-1H-imidazol-1-yl)-5-(methylsulfonyl)biphenyl-4-yl)methanol]
502	93	CCS(=O)(=O)c1cc(-c2ccc(-n3cc(C(F)(F)F)nc3C)c(-n3nncc3-c3ccc(OC(F)(F)F)cc3)c2)cc(F)c1CO [Example 92, [3-(ethylsulfonyl)-5-fluoro-4′-[2-methyl-4-(trifluoromethyl)-1H-imidazol-1-yl]-3′-(5-{4-[(trifluoromethyl)oxy]phenyl}-1H-1,2,3-triazol-1-yl)biphenyl-4-yl]methanol]
729	58	Cc1nc(-c2cc(-c3cccc(C(=O)N(C)C)c3)ccc2-n2cc(C(F)(F)F)nc2C)c(-c2ccc(OC(F)F)c(F)c2)o1 [Example 442, 3′-(5-(4-(difluoromethoxy)-3-fluorophenyl)-2-methyloxazol-4-yl)-N,N-dimethyl-4′-(2-methyl-4-(trifluoromethyl)-1H-imidazol-1-yl)biphenyl-3-carboxamide]
541	62	Cc1nc(C(F)(F)F)cn1-c1ccc(-c2cccc(S(C)(=O)=O)c2)cc1-n1nncc1C(=O)c1ccc(Cl)cc1 [Example 10, (4-chlorophenyl)(1-{3′-(methylsulfonyl)-4-[2-methyl-4-(trifluoromethyl)-1H-imidazol-1-yl]biphenyl-3-yl}-1H-1,2,3-triazol-5-yl)methanone]
886	70	Cc1nc(C(F)(F)F)cn1-c1ccc(-c2cccc(C(C)(C)C(N)=O)c2)cc1-n1nncc1C(=O)c1ccc(C(F)(F)F)cc1 [Example 135, 2-methyl-2-{4′-[2-methyl-4-(trifluoromethyl)-1H-imidazol-1-yl]-3′-(5-{[4-(trifluoromethyl)phenyl]carbonyl}-1H-1,2,3-triazol-1-yl)biphenyl-3-yl}propanamide]
1150	32	Cc1nc(C(F)(F)F)cn1-c1ccc(-c2cccc(S(C)(=O)=O)c2)cc1-c1nc(C(F)(F)F)cn1-c1ccc(Cl)nc1 [Example 642, 2-chloro-5-(2-(4-(2-methyl-4-(trifluoromethyl)-1H-imidazol-1-yl)-3′-(methylsulfonyl)biphenyl-3-yl)-4-(trifluoromethyl)-1H-imidazol-1-yl)pyridine]
149	62	Cc1nc(C(F)(F)F)cn1-c1ccc(-c2cccc(S(C)(=O)=O)c2)cc1-n1nncc1C(C)c1ccc(Cl)cc1 (stereo not shown) [Example 108, 5-[1-(4-chlorophenyl)ethyl]-1-{3′-(methylsulfonyl)-4-[2-methyl-4-(trifluoromethyl)-1H-imidazol-1-yl]biphenyl-3-yl}-1H-1,2,3-triazole]
239	39	Cc1nc(-c2cc(-c3cc(F)c(CO)c(S(C)(=O)=O)c3)ccc2-n2cc(C(F)(F)F)nc2C)c(-c2cccnc2OC(F)F)o1 [Example 389, (3′-(5-(2-(difluoromethoxy)pyridin-3-yl)-2-methyloxazol-4-yl)-3-fluoro-4′-(2-methyl-4-(trifluoromethyl)-1H-imidazol-1-yl)-5-(methylsulfonyl)biphenyl-4-yl)methanol]
118	123	CCOCc1ccc(-c2ccc(-n3cc(C(F)(F)F)nc3C)c(-n3nncc3-c3ccc(OC(F)(F)F)cc3)c2)cc1S(C)(=O)=O [Example 85, 1-{4′-[(ethyloxy)methyl]-3′-(methylsulfonyl)-4-[2-methyl-4-(trifluoromethyl)-1H-imidazol-1-yl]biphenyl-3-yl}-5-{4-[(trifluoromethyl)oxy]phenyl}-1H-1,2,3-triazole]
233	110	CS(=O)(=O)c1cc(-c2ccc(-n3cc(C(F)(F)F)nc3Cl)c(-n3nncc3-c3ccc(Cl)cc3Cl)c2)cc(F)c1CO [Example 145, {4′-[2-chloro-4-(trifluoromethyl)-1H-imidazol-1-yl]-3′-[5-(2,4-dichlorophenyl)-1H-1,2,3-triazol-1-yl]-3-fluoro-5-(methylsulfonyl)biphenyl-4-yl}methanol]
514	66	Cc1nc(C(F)(F)F)cn1-c1ccc(-c2cccc(S(C)(=O)=O)c2)cc1-c1nc(CCO)oc1-c1ccc(OC(F)(F)F)cc1 [Example 524, 2-(4-(4-(2-methyl-4-(trifluoromethyl)-1H-imidazol-1-yl)-3′-(methylsulfonyl)-[1,1′-biphenyl]-3-yl)-5-(4-(trifluoromethoxy)phenyl)oxazol-2-yl)ethanol]
210	87	Cc1nc(C(F)(F)F)cn1-c1ccc(-c2cccc(S(=O)(=O)N(C)C)c2)cc1-n1nncc1-c1ccc(OC(F)(F)F)cc1 [Example 214, N,N-dimethyl-4′-(2-methyl-4-(trifluoromethyl)-1H-imidazol-1-yl)-3′-(5-(4-(trifluoromethoxy)phenyl)-1H-1,2,3-triazol-1-yl)-[1,1′-biphenyl]-3-sulfonamide]
238	107	Cc1nc(C(F)(F)F)c(Cl)n1-c1ccc(-c2cccc(S(C)(=O)=O)c2)cc1-c1cnnn1-c1ccc(Cl)cc1 [Example 243, 5-{4-[5-chloro-2-methyl-4-(trifluoromethyl)-1H-imidazol-1-yl]-3′-(methylsulfonyl)biphenyl-3-yl}-1-(4-chlorophenyl)-1H-1,2,3-triazole]
920	79	Cc1nc(C(F)(F)F)cn1-c1ccc(-c2cccc(S(C)(=O)=O)c2)cc1-n1nncc1Cc1ccc(Cl)c(Cl)c1 [Example 115, 5-[(3,4-dichlorophenyl)methyl]-1-{3′-(methylsulfonyl)-4-[2-methyl-4-(trifluoromethyl)-1H-imidazol-1-yl]biphenyl-3-yl}-1H-1,2,3-triazole]
2540	64	Cc1nc(C(F)(F)F)cn1-c1ccc(-c2cccc(S(C)(=O)=O)c2)cc1-n1nncc1-c1ccc(C#N)cc1 [Example 47, 4-(1-{3′-(methylsulfonyl)-4-[2-methyl-4-(trifluoromethyl)-1H-imidazol-1-yl]biphenyl-3-yl}-1H-1,2,3-triazol-5-yl)benzonitrile]
413	76	Cc1nc(Cl)cn1-c1ccc(-c2cc(F)c(CO)c(S(C)(=O)=O)c2)cc1-n1nncc1-c1ccc(OC(F)(F)F)cc1 [Example 147, [4′-(4-chloro-2-methyl-1H-imidazol-1-yl)-3-fluoro-5-(methylsulfonyl)-3′-(5-{4-[(trifluoromethyl)oxy]phenyl}-1H-1,2,3-triazol-1-yl)biphenyl-4-yl]methanol]
229	58	Cc1nc(C(F)(F)F)cn1-c1ccc(-c2ccc(CO)c(S(C)(=O)=O)c2)cc1-c1ocnc1Cc1ccc(Cl)cc1 [Example 635, (3′-(4-(4-chlorobenzyl)oxazol-5-yl)-4′-(2-methyl-4-(trifluoromethyl)-1H-imidazol-1-yl)-3-(methylsulfonyl)-[1,1′-biphenyl]-4-yl)methanol]
214	75	COc1ncc(-c2oc(C)nc2-c2cc(-c3cc(F)c(CO)c(S(C)(=O)=O)c3)ccc2-n2cc(C(F)(F)F)nc2C)cc1F [Example 440, (3-fluoro-3′-(5-(5-fluoro-6-methoxypyridin-3-yl)-2-methyloxazol-4-yl)-4′-(2-methyl-4-(trifluoromethyl)-1H-imidazol-1-yl)-5-(methylsulfonyl)biphenyl-4-yl)methanol]

Source: US9834542B2, “LXR modulators” (BRISTOL-MYERS SQUIBB COMPANY, priority 2013, dated 2017)
